Results: PubChem BioAssay (NCI)
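All cell lines were grown in 96-well plates and treated with compound for 48 hours. Definition used: TGI = concentration required for complete inhibition of growth.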

What follows are compounds tested on SF-268 CNS (assay: DTP human tumour cell line panel, 48 h).
Cc1ccc2nc(NS(=O)(=O)c3cc(C)c(Cl)cc3S)[nH]c2c1 gave a TGI of over 100 µM. With COc1cc(OC)c2c(=O)c3cccc(C)c3n(C)c2c1 the TGI was over 100 µM. In the case of O=C1NC(N/N=C\c2ccccc2)=N/C1=C/c1ccccc1, the TGI is reported as over 100 µM. Compound CC(C)(C)OC(=O)CCCCCNC(=O)CCCCCNC(=O)CCC(CN(CC(=O)OCc1ccccc1)CC(=O)OCc1ccccc1)N(CC(=O)OCc1ccccc1)CC(=O)OCc1ccccc1 (stereo not given) has a TGI of over 100 µM. Compound O=[N+]([O-])/C(Cl)=C(/C(Cl)=C(Cl)Cl)N1CCOCC1 has a TGI of 24.4 µM. In the case of CN=c1sc2nc(C#N)c(C#N)nc2n1C, the TGI is reported as over 94.7 µM. Compound C[C@@H]1CC[C@@H]2[C@@H](C1)O[C@@H]([C@@H](C)OCc1ccccc1)SC2(C)C has a TGI of 51.8 µM. For Cc1cn(C2CC(N=[N+]=[N-])C(COP(=O)(O)OCC3OC(n4cc(F)c(=O)[nH]c4=O)CC3O)O2)c(=O)[nH]c1=O (stereo not given), the TGI was over 100 µM. Work on COC(=O)C(=O)Nc1cc2c3c(c1)Oc1cccc4c1C3(C)c1c(cccc1O2)O4 yielded a TGI of over 100 µM.

Each compound was assayed on SF-295 CNS (assay: DTP human tumour cell line panel, 48 h).
Work on Cc1ccc2nc(NS(=O)(=O)c3cc(C)c(Cl)cc3S)[nH]c2c1 yielded a TGI of over 100 µM. COc1cc(OC)c2c(=O)c3cccc(C)c3n(C)c2c1 was tested, and the TGI was over 100 µM. O=C1NC(N/N=C\c2ccccc2)=N/C1=C/c1ccccc1 gave a TGI of over 100 µM. In the case of CC(C)(C)OC(=O)CCCCCNC(=O)CCCCCNC(=O)CCC(CN(CC(=O)OCc1ccccc1)CC(=O)OCc1ccccc1)N(CC(=O)OCc1ccccc1)CC(=O)OCc1ccccc1 (stereo not given), the TGI is reported as over 100 µM. For O=[N+]([O-])/C(Cl)=C(/C(Cl)=C(Cl)Cl)N1CCOCC1, the TGI was 25.8 µM. CN=c1sc2nc(C#N)c(C#N)nc2n1C gave a TGI of 45.5 µM. For C[C@@H]1CC[C@@H]2[C@@H](C1)O[C@@H]([C@@H](C)OCc1ccccc1)SC2(C)C, the TGI was 31.2 µM. With Cc1cn(C2CC(N=[N+]=[N-])C(COP(=O)(O)OCC3OC(n4cc(F)c(=O)[nH]c4=O)CC3O)O2)c(=O)[nH]c1=O (stereo not given) the TGI was over 100 µM. In the case of COC(=O)C(=O)Nc1cc2c3c(c1)Oc1cccc4c1C3(C)c1c(cccc1O2)O4, the TGI is reported as over 100 µM.

The compounds below were run on SF-539 CNS (assay: DTP human tumour cell line panel, 48 h).
Cc1ccc2nc(NS(=O)(=O)c3cc(C)c(Cl)cc3S)[nH]c2c1 gave a TGI of over 100 µM. Compound COc1cc(OC)c2c(=O)c3cccc(C)c3n(C)c2c1 has a TGI of over 100 µM. With O=C1NC(N/N=C\c2ccccc2)=N/C1=C/c1ccccc1 the TGI was 43.5 µM. In the case of CC(C)(C)OC(=O)CCCCCNC(=O)CCCCCNC(=O)CCC(CN(CC(=O)OCc1ccccc1)CC(=O)OCc1ccccc1)N(CC(=O)OCc1ccccc1)CC(=O)OCc1ccccc1 (stereo not given), the TGI is reported as over 100 µM. Work on O=[N+]([O-])/C(Cl)=C(/C(Cl)=C(Cl)Cl)N1CCOCC1 yielded a TGI of 9.05 µM. CN=c1sc2nc(C#N)c(C#N)nc2n1C was tested, and the TGI was over 70.9 µM. Work on C[C@@H]1CC[C@@H]2[C@@H](C1)O[C@@H]([C@@H](C)OCc1ccccc1)SC2(C)C yielded a TGI of 33.6 µM. Cc1cn(C2CC(N=[N+]=[N-])C(COP(=O)(O)OCC3OC(n4cc(F)c(=O)[nH]c4=O)CC3O)O2)c(=O)[nH]c1=O (stereo not given) showed a TGI of over 44 µM. Compound COC(=O)C(=O)Nc1cc2c3c(c1)Oc1cccc4c1C3(C)c1c(cccc1O2)O4 has a TGI of over 76.6 µM.

What follows are compounds tested on SK-MEL-2 melanoma (assay: DTP human tumour cell line panel, 48 h).
With Cc1ccc2nc(NS(=O)(=O)c3cc(C)c(Cl)cc3S)[nH]c2c1 the TGI was over 100 µM. COc1cc(OC)c2c(=O)c3cccc(C)c3n(C)c2c1 gave a TGI of over 100 µM. Compound O=C1NC(N/N=C\c2ccccc2)=N/C1=C/c1ccccc1 has a TGI of over 100 µM. CC(C)(C)OC(=O)CCCCCNC(=O)CCCCCNC(=O)CCC(CN(CC(=O)OCc1ccccc1)CC(=O)OCc1ccccc1)N(CC(=O)OCc1ccccc1)CC(=O)OCc1ccccc1 (stereo not given) showed a TGI of over 100 µM. O=[N+]([O-])/C(Cl)=C(/C(Cl)=C(Cl)Cl)N1CCOCC1 showed a TGI of 11.6 µM. In the case of CN=c1sc2nc(C#N)c(C#N)nc2n1C, the TGI is reported as 40.7 µM. Work on C[C@@H]1CC[C@@H]2[C@@H](C1)O[C@@H]([C@@H](C)OCc1ccccc1)SC2(C)C yielded a TGI of 31 µM. Compound Cc1cn(C2CC(N=[N+]=[N-])C(COP(=O)(O)OCC3OC(n4cc(F)c(=O)[nH]c4=O)CC3O)O2)c(=O)[nH]c1=O (stereo not given) has a TGI of over 100 µM. Compound COC(=O)C(=O)Nc1cc2c3c(c1)Oc1cccc4c1C3(C)c1c(cccc1O2)O4 has a TGI of over 100 µM.

These compounds were tested on SK-MEL-5 melanoma (assay: DTP human tumour cell line panel, 48 h).
For Cc1ccc2nc(NS(=O)(=O)c3cc(C)c(Cl)cc3S)[nH]c2c1, the TGI was over 100 µM. Work on COc1cc(OC)c2c(=O)c3cccc(C)c3n(C)c2c1 yielded a TGI of 60.6 µM. Work on O=C1NC(N/N=C\c2ccccc2)=N/C1=C/c1ccccc1 yielded a TGI of over 100 µM. Compound CC(C)(C)OC(=O)CCCCCNC(=O)CCCCCNC(=O)CCC(CN(CC(=O)OCc1ccccc1)CC(=O)OCc1ccccc1)N(CC(=O)OCc1ccccc1)CC(=O)OCc1ccccc1 (stereo not given) has a TGI of over 100 µM. O=[N+]([O-])/C(Cl)=C(/C(Cl)=C(Cl)Cl)N1CCOCC1 was tested, and the TGI was 3.48 µM. CN=c1sc2nc(C#N)c(C#N)nc2n1C showed a TGI of 35.4 µM. In the case of C[C@@H]1CC[C@@H]2[C@@H](C1)O[C@@H]([C@@H](C)OCc1ccccc1)SC2(C)C, the TGI is reported as 31.3 µM. For Cc1cn(C2CC(N=[N+]=[N-])C(COP(=O)(O)OCC3OC(n4cc(F)c(=O)[nH]c4=O)CC3O)O2)c(=O)[nH]c1=O (stereo not given), the TGI was over 100 µM. With COC(=O)C(=O)Nc1cc2c3c(c1)Oc1cccc4c1C3(C)c1c(cccc1O2)O4 the TGI was over 100 µM.
